From patent publication US7799353B2, “Pharmaceutical mixture for hepatitis treatment and its preparation method” (Industrial Technology Research Institute, priority 2003, dated 2010)

Key:
[1] = system: d-galactosamine-induced liver damage; test: Histopathological sections of liver of d-galactosamine-induced acute hepatitis animals; type: in vivo, rats; conditions: 300 mg/kg
Procedure: (§1) Rats are randomly divided, with six rats in each group. The animals fasted for 24 hr before the experiment. In the study, normal and d-galactosamine (Gal) groups are orally given with distilled water, testing groups are orally given with 1 g/kg of the test articles (JM, BMEC-1 or BMEC-101 from different processes) dissolving in distilled water, and rats in positive control group are orally administrated with silymarin (200 mg/kg) and guanine (300 mg/kg). One hour later, each group is i.p. with d-galactosamine (400 mg/kg), and the normal group is i.p. with saline. Four and eight hours after d-galactosamine injection, the same dosages are administrated again. Twenty-four hours after d-galactosamine injection, the animals are anesthetized with ether, and the blood is collected from the carotid artery. The serum is separated and stands still at room temperature for 1 hr, and centrifuged (Backman centrifuge, GS-6R, 3000 rpm) for 10 mins. The activities of rat serum GOT and GPT are measured.
After blood is collected, the liver of the acute hepatitis animal induced by d-galactosamine is separated, and liver tissue around 0.5 cm^3 in each folium is taken out. Those tissues are fixed in 10% neutral formalin for 1 to 2 weeks, then dehydrated and paraffin embedded by the dehydration and wax-exudation device, and cut into 4 to 5 μm liver slices by rotary microtome. The slices are stained with Haematoxylin and Eosin, and the pathological patterns are observed under an optical microscope.

[2] = system: d-galactosamine-induced acute hepatitis; test: d-galactosamine-induced acute hepatitis in rats, serum GOT/GPT (Embodiment 5, guanine positive control); type: in vivo; conditions: for reduction of sGOT value / reduction of sGPT value: vs d-galactosamine group
Procedure: Male rats are randomly divided, with five rats in the individual group and 200±20 g of each. In the study, normal and d-galactosamine (Gal) groups are orally given with distilled water, testing groups are orally given with test articles (JM or BMEC-1 from different processes) dissolving in distilled water, positive control group is orally given with guanine (300 mg/kg), and each administration dosage is 10 ml/kg.
Half-hour later, each group is i.p. with d-galactosamine (500 mg/kg) except the normal group. Four and eight hours after d-galactosamine injection, the same dosages are administrated again. Twenty-four hours after d-galactosamine injection, the animals are sacrificed for collecting the blood, and then the serum GOT (Glutamyl Oxaloacetic Transaminase) and GPT (Glutamyl Pyrubic Transaminase) activities are measured by using HITACHI auto-analyzing system (model 7050) with UV method.

[3] = system: d-galactosamine-induced acute hepatitis; test: d-galactosamine-induced acute hepatitis in rats, serum GOT/GPT (Embodiment 6, silymarin and guanine positive controls); type: in vivo
Procedure: as §1

[4] = Table 2, oral 300 × 3 mg/kg, Gal 500 mg/kg i.p., serum 24 h after Gal, mean ± SEM, n = 5
[5] = Table 2 experiment, positive control, oral 300 × 3 mg/kg
[6] = Table 3, oral 300 × 3 mg/kg, Gal 500 mg/kg i.p., mean ± SEM, n = 5
[7] = Table 3 experiment, oral 300×3 mg/kg
[8] = Table 4 Batch 1, oral 300 × 3 mg/kg, Gal 500 mg/kg i.p., mean ± SEM, n = 5
[9] = Table 4 Batch 1, oral 300×3 mg/kg
[10] = Table 4 Batch 2, oral 300 × 3 mg/kg, Gal 500 mg/kg i.p., mean ± SEM, n = 5
[11] = Table 4 Batch 2, oral 300×3 mg/kg
[12] = Table 5, oral 300 × 3 mg/kg, Gal 400 mg/kg i.p., mean ± SEM, n = 6
[13] = Table 5 experiment, oral 300×3 mg/kg, vs d-galactosamine group

Nc1nc2nc[nH]c2c(=O)[nH]1 [guanine] gave a Fibrosis ([1]; liver fibrosis grade) of 1, a Balloon degeneration ([1]; liver histopathology grade) of 0 and a Bile duct proliferation ([1]; liver histopathology grade) of 1. The Fatty change ([1]; liver histopathology grade) was 1, the Inflammation ([1]; liver histopathology grade) was 1 and the Mitosis ([1]; liver histopathology grade) was 0. For the same compound, the Necrosis ([1]; liver histopathology grade) was 0, the sGOT [2, 4] was 980.0 ± 92.5 U/L and the sGPT [2, 4] was 589.6 ± 54.6 U/L. For the same compound, the “reduction of sGOT value” [2, 5] was 24%, the “reduction of sGPT value” [2, 5] was 32% and the sGOT [2, 6] was 954.8 ± 122.1 U/L. The sGPT [2, 6] was 514.4 ± 78.2 U/L, the “reduction of sGOT value” [2, 7] was 45% and the “reduction of sGPT value” [2, 7] was 59%. The sGOT [2, 8] was 1055.6 ± 150.1 U/L, the sGPT [2, 8] was 699.2 ± 103.6 U/L and the “reduction of sGOT value” [2, 9] was 49%. For the same compound, the “reduction of sGPT value” [2, 9] was 41%, the GOT [2, 10] was 1080.0 ± 181.7 U/L and the GPT [2, 10] was 584.0 ± 114.9 U/L. For the same compound, the “reduction of sGOT value” [2, 11] was 42%, the “reduction of sGPT value” [2, 11] was 49% and the sGOT [3, 12] was 160.7 ± 33.5 U/L. For the same compound, the sGPT [3, 12] was 55.1 ± 19.2 U/L, the “reduction of sGOT value” [3, 13] was 70% and the “reduction of sGPT value” [3, 13] was 79%.
